Measurements taken from PubChem BioAssay (NCI).
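1) Cells in 96-well plates. 2) Compound, 48 h, 5 concentrations. 3) Linear interpolation between surrounding doses. 4) Unreached endpoint = highest concentration. TGI is the concentration that stops growth completely.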

What was measured:
Test in all cases: NCI anticancer screen, dose series, 48 h
NCI-H23 lung = test system: NCI-H23 lung
OVCAR-8 ovarian = test system: OVCAR-8 ovarian
UACC-62 melanoma = test system: UACC-62 melanoma
HL-60(TB) leukemia = test system: HL-60(TB) leukemia
LOX IMVI melanoma = test system: LOX IMVI melanoma
A549 NSCLC = test system: A549 NSCLC
SK-OV-3 ovarian = test system: SK-OV-3 ovarian
SN12C renal = test system: SN12C renal
SNB-19 CNS = test system: SNB-19 CNS
ACHN renal = test system: ACHN renal
UO-31 renal = test system: UO-31 renal
M19-MEL melanoma = test system: M19-MEL melanoma
COLO 205 colon = test system: COLO 205 colon
SK-MEL-5 melanoma = test system: SK-MEL-5 melanoma
OVCAR-4 ovarian = test system: OVCAR-4 ovarian
HCT-15 colon = test system: HCT-15 colon
HOP-92 NSCLC = test system: HOP-92 NSCLC
RPMI-8226 leukemia = test system: RPMI-8226 leukemia
DMS 114 small cell lung = test system: DMS 114 small cell lung
CCRF-CEM leukemia = test system: CCRF-CEM leukemia
SK-MEL-2 melanoma = test system: SK-MEL-2 melanoma
LXFL 529 NSCLC = test system: LXFL 529 NSCLC
EKVX NSCLC = test system: EKVX NSCLC
OVCAR-5 ovarian = test system: OVCAR-5 ovarian
SW-620 colon = test system: SW-620 colon
OVCAR-3 ovarian = test system: OVCAR-3 ovarian
SNB-78 CNS = test system: SNB-78 CNS
NCI-H460 lung = test system: NCI-H460 lung
HCC-2998 colon = test system: HCC-2998 colon
UACC-257 melanoma = test system: UACC-257 melanoma
DLD-1 colon = test system: DLD-1 colon
K-562 leukemia = test system: K-562 leukemia
SNB-75 CNS = test system: SNB-75 CNS
NCI-H522 lung = test system: NCI-H522 lung
786-0 renal = test system: 786-0 renal
TK-10 renal = test system: TK-10 renal
SK-MEL-28 melanoma = test system: SK-MEL-28 melanoma
IGROV1 ovarian = test system: IGROV1 ovarian
KM12 colon = test system: KM12 colon
HOP-62 NSCLC = test system: HOP-62 NSCLC
M14 melanoma = test system: M14 melanoma
HT29 colon = test system: HT29 colon
MALME-3M melanoma = test system: MALME-3M melanoma
SF-295 CNS = test system: SF-295 CNS
MOLT-4 leukemia = test system: MOLT-4 leukemia
CAKI-1 renal = test system: CAKI-1 renal
RXF 393 renal = test system: RXF 393 renal
DMS 273 small cell lung = test system: DMS 273 small cell lung
KM20L2 colon = test system: KM20L2 colon
HCT-116 colon = test system: HCT-116 colon
NCI-H226 lung = test system: NCI-H226 lung
SR leukemia = test system: SR leukemia
A498 renal = test system: A498 renal
SF-539 CNS = test system: SF-539 CNS
U251 CNS = test system: U251 CNS
SF-268 CNS = test system: SF-268 CNS

## C#CCC(O)c1ccccc1C(O)CC#C (stereo unspecified)
NCI-H23 lung
  TGI: > 100 µM
OVCAR-8 ovarian
  TGI: > 100 µM
UACC-62 melanoma
  TGI: > 100 µM
HL-60(TB) leukemia
  TGI: > 100 µM
LOX IMVI melanoma
  TGI: > 100 µM
A549 NSCLC
  TGI: > 100 µM
SK-OV-3 ovarian
  TGI: > 100 µM
SN12C renal
  TGI: > 100 µM
SNB-19 CNS
  TGI: > 100 µM
ACHN renal
  TGI: > 100 µM
UO-31 renal
  TGI: > 100 µM
M19-MEL melanoma
  TGI: > 100 µM
COLO 205 colon
  TGI: > 100 µM
SK-MEL-5 melanoma
  TGI: > 100 µM
OVCAR-4 ovarian
  TGI: > 100 µM
HCT-15 colon
  TGI: > 100 µM
HOP-92 NSCLC
  TGI: > 100 µM
RPMI-8226 leukemia
  TGI: > 100 µM
DMS 114 small cell lung
  TGI: > 100 µM
CCRF-CEM leukemia
  TGI: > 100 µM
SK-MEL-2 melanoma
  TGI: > 100 µM
LXFL 529 NSCLC
  TGI: > 100 µM
EKVX NSCLC
  TGI: > 100 µM
OVCAR-5 ovarian
  TGI: > 100 µM
SW-620 colon
  TGI: > 100 µM
OVCAR-3 ovarian
  TGI: > 100 µM
SNB-78 CNS
  TGI: > 100 µM
NCI-H460 lung
  TGI: > 100 µM
HCC-2998 colon
  TGI: > 100 µM
UACC-257 melanoma
  TGI: > 100 µM
DLD-1 colon
  TGI: > 100 µM
K-562 leukemia
  TGI: > 100 µM
SNB-75 CNS
  TGI: > 100 µM
NCI-H522 lung
  TGI: > 100 µM
786-0 renal
  TGI: > 100 µM
TK-10 renal
  TGI: > 100 µM
SK-MEL-28 melanoma
  TGI: > 100 µM
IGROV1 ovarian
  TGI: > 100 µM
KM12 colon
  TGI: > 100 µM
HOP-62 NSCLC
  TGI: > 100 µM
M14 melanoma
  TGI: > 100 µM
HT29 colon
  TGI: > 100 µM
MALME-3M melanoma
  TGI: > 100 µM
SF-295 CNS
  TGI: > 100 µM
MOLT-4 leukemia
  TGI: > 100 µM
CAKI-1 renal
  TGI: > 100 µM
RXF 393 renal
  TGI: 95.2 µM
DMS 273 small cell lung
  TGI: > 100 µM
KM20L2 colon
  TGI: > 100 µM

## COc1ccccc1C=NC12CC3CC(CC(C3)C1)C2
NCI-H23 lung
  TGI: > 100 µM
OVCAR-8 ovarian
  TGI: > 100 µM
UACC-62 melanoma
  TGI: > 100 µM
HL-60(TB) leukemia
  TGI: > 100 µM
LOX IMVI melanoma
  TGI: > 100 µM
A549 NSCLC
  TGI: > 100 µM
SK-OV-3 ovarian
  TGI: > 100 µM
SN12C renal
  TGI: > 100 µM
SNB-19 CNS
  TGI: > 100 µM
ACHN renal
  TGI: > 100 µM
UO-31 renal
  TGI: > 100 µM
HCT-116 colon
  TGI: > 10 µM
M19-MEL melanoma
  TGI: > 100 µM
COLO 205 colon
  TGI: > 100 µM
SK-MEL-5 melanoma
  TGI: > 100 µM
OVCAR-4 ovarian
  TGI: > 100 µM
NCI-H226 lung
  TGI: > 10 µM
HCT-15 colon
  TGI: > 100 µM
HOP-92 NSCLC
  TGI: > 100 µM
RPMI-8226 leukemia
  TGI: > 100 µM
SR leukemia
  TGI: > 100 µM
DMS 114 small cell lung
  TGI: > 10 µM
A498 renal
  TGI: > 100 µM
CCRF-CEM leukemia
  TGI: > 100 µM
SF-539 CNS
  TGI: > 100 µM
SK-MEL-2 melanoma
  TGI: > 100 µM
EKVX NSCLC
  TGI: > 100 µM
OVCAR-5 ovarian
  TGI: > 100 µM
SW-620 colon
  TGI: > 100 µM
OVCAR-3 ovarian
  TGI: > 100 µM
NCI-H460 lung
  TGI: > 100 µM
HCC-2998 colon
  TGI: > 100 µM
UACC-257 melanoma
  TGI: > 100 µM
K-562 leukemia
  TGI: > 100 µM
SNB-75 CNS
  TGI: > 100 µM
NCI-H522 lung
  TGI: > 100 µM
786-0 renal
  TGI: > 100 µM
TK-10 renal
  TGI: > 100 µM
U251 CNS
  TGI: > 100 µM
SK-MEL-28 melanoma
  TGI: > 100 µM
KM12 colon
  TGI: > 100 µM
HOP-62 NSCLC
  TGI: > 100 µM
M14 melanoma
  TGI: > 100 µM
HT29 colon
  TGI: > 100 µM
MALME-3M melanoma
  TGI: > 100 µM
SF-295 CNS
  TGI: > 100 µM
MOLT-4 leukemia
  TGI: > 100 µM
CAKI-1 renal
  TGI: > 100 µM
SF-268 CNS
  TGI: > 100 µM
RXF 393 renal
  TGI: > 100 µM
DMS 273 small cell lung
  TGI: > 100 µM
KM20L2 colon
  TGI: > 100 µM
